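These data come from cells grown in 96-well plates and exposed to compound for 48 hours at five concentrations. At the GI50, growth is halved.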 Activity calls are given as the source filed them. Cut-off read from the data, not from the text of the source: active = GI50 up to about 1.1 µM and inactive = higher.
How the values were obtained:
Assay in all cases: NCI anticancer screen, dose series, 48 h
786-0 = system: 786-0
MOLT-4 = system: MOLT-4
DU-145 = system: DU-145
SN12C = system: SN12C
K562 = system: K562
MCF7 = system: MCF7
SK-MEL-2 = system: SK-MEL-2
CAKI-1 = system: CAKI-1
SF-295 = system: SF-295
RPMI-8226 = system: RPMI-8226
EKVX = system: EKVX
HCC 2998 = system: HCC 2998
NCI-H226 = system: NCI-H226
IGROV-1 = system: IGROV-1
HOP-62 = system: HOP-62
UO-31 = system: UO-31
NCI-H23 = system: NCI-H23
RXF 393 = system: RXF 393
Hs-578T = system: Hs-578T
MDA-N = system: MDA-N

Measured: GI50

Cc1ccc(SC2=C(N(C)C)C(=O)c3ccccc3C2=O)cc1
inactive: 786-0 3.82 µM | DU-145 10.7 µM | SN12C 4.92 µM | MCF7 2.31 µM | SK-MEL-2 9.73 µM | CAKI-1 1.53 µM | SF-295 11.5 µM | RPMI-8226 2.54 µM | EKVX 6.71 µM | HCC 2998 14 µM | NCI-H226 9.82 µM | IGROV-1 4.95 µM | HOP-62 8.2 µM | UO-31 10.1 µM | NCI-H23 1.82 µM | RXF 393 6.15 µM | Hs-578T 4.85 µM
active: MOLT-4 0.82 µM | K562 0.383 µM

O=C(Cn1c2c(c3ccccc31)CCCC2)N1CCCC1
inactive: 786-0 > 100 µM | MDA-N > 100 µM | SN12C > 100 µM | K562 > 10 µM | MCF7 > 100 µM | SK-MEL-2 > 100 µM | CAKI-1 > 100 µM | SF-295 61.8 µM | RPMI-8226 > 100 µM | EKVX > 100 µM | HCC 2998 > 100 µM | IGROV-1 > 100 µM | HOP-62 > 100 µM | UO-31 38.4 µM | NCI-H23 > 100 µM | Hs-578T 22.8 µM

CCOC(=O)/C(C(=S)NC)=C(/N)N1CCCC1
inactive: 786-0 > 100 µM | MOLT-4 > 100 µM | MDA-N > 100 µM | DU-145 > 100 µM | SN12C > 100 µM | K562 > 100 µM | SK-MEL-2 > 100 µM | CAKI-1 77.1 µM | SF-295 > 100 µM | RPMI-8226 > 100 µM | EKVX > 100 µM | HCC 2998 > 100 µM | NCI-H226 > 100 µM | IGROV-1 > 100 µM | HOP-62 > 100 µM | UO-31 71.6 µM | NCI-H23 > 100 µM | RXF 393 > 100 µM | Hs-578T > 100 µM

Cc1nc2ccccc2c(=O)n1NC(=O)c1ccc(N)cc1
inactive: 786-0 > 100 µM | MOLT-4 > 100 µM | MDA-N > 100 µM | DU-145 > 100 µM | SN12C > 100 µM | K562 > 100 µM | MCF7 > 100 µM | SF-295 > 100 µM | RPMI-8226 > 100 µM | EKVX > 100 µM | HCC 2998 > 100 µM | NCI-H226 > 100 µM | IGROV-1 > 100 µM | HOP-62 > 100 µM | UO-31 > 100 µM | NCI-H23 > 100 µM | RXF 393 > 100 µM

N#Cc1c(N)n(-c2cccc(C(=O)O)c2)c(=O)c2cc([N+](=O)[O-])ccc12
inactive: 786-0 > 100 µM | MDA-N > 100 µM | DU-145 > 100 µM | SN12C > 100 µM | K562 > 100 µM | SK-MEL-2 > 100 µM | CAKI-1 > 100 µM | RPMI-8226 > 100 µM | HCC 2998 > 100 µM | NCI-H226 > 100 µM | UO-31 > 100 µM | NCI-H23 > 100 µM | Hs-578T > 100 µM

Cn1c(-c2c(C3=CC(=O)N(c4ccccc4)C3=O)c3ccccc3n2C)cc2ccccc21
inactive: 786-0 > 100 µM | MOLT-4 58.7 µM | MDA-N > 100 µM | DU-145 > 100 µM | SN12C > 100 µM | K562 69.2 µM | MCF7 > 100 µM | SK-MEL-2 > 100 µM | CAKI-1 > 100 µM | SF-295 34.1 µM | RPMI-8226 92.7 µM | EKVX 4.51 µM | HCC 2998 > 100 µM | NCI-H226 > 100 µM | IGROV-1 > 100 µM | HOP-62 > 100 µM | UO-31 > 100 µM | NCI-H23 > 100 µM | RXF 393 4.4 µM

COc1ccc(-n2nnnc2C2(Nc3ccccc3)CCN(Cc3ccccc3)CC2)cc1
inactive: 786-0 13.6 µM | MOLT-4 5.04 µM | DU-145 24.9 µM | SN12C 7.29 µM | K562 3.13 µM | MCF7 7.73 µM | SF-295 13.6 µM | RPMI-8226 9.77 µM | EKVX 21.6 µM | HCC 2998 3.93 µM | NCI-H226 25.2 µM | IGROV-1 11.9 µM | HOP-62 16.5 µM | UO-31 7.48 µM | NCI-H23 21 µM | RXF 393 17.5 µM | Hs-578T 4.51 µM

COc1ccc2c3c([nH]c2c1[N+](=O)[O-])C(C)N(Cc1ccccc1)CC3 (configuration not stated)
active: K562 0.643 µM
inactive: 786-0 4.35 µM | MOLT-4 3.2 µM | SN12C 5.81 µM | SK-MEL-2 3.52 µM | CAKI-1 2.47 µM | SF-295 2.02 µM | RPMI-8226 2.43 µM | EKVX 40.3 µM | HCC 2998 11.5 µM | NCI-H226 4.49 µM | IGROV-1 3.57 µM | HOP-62 2.07 µM | UO-31 13.8 µM | NCI-H23 7.94 µM | RXF 393 3.21 µM

COc1ccc(/C(Cl)=C(\C=N/O)c2ccc(OC)c(OC)c2)cc1OC
inactive: 786-0 > 100 µM | MOLT-4 > 100 µM | SN12C > 100 µM | K562 > 100 µM | SK-MEL-2 > 100 µM | CAKI-1 > 100 µM | SF-295 81.7 µM | RPMI-8226 > 100 µM | EKVX > 100 µM | HCC 2998 > 100 µM | NCI-H226 > 100 µM | IGROV-1 > 100 µM | HOP-62 49.8 µM | UO-31 > 100 µM | NCI-H23 > 100 µM | RXF 393 > 100 µM

CN(C)/N=C1/CCC(C(F)(F)F)(C(F)(F)F)O1
inactive: 786-0 29.4 µM | MOLT-4 37.2 µM | MDA-N 48.3 µM | DU-145 47 µM | SN12C 27.8 µM | K562 40.7 µM | SK-MEL-2 20.7 µM | CAKI-1 41 µM | SF-295 39.5 µM | RPMI-8226 31.5 µM | EKVX 36.9 µM | HCC 2998 30.6 µM | NCI-H226 26.3 µM | IGROV-1 31.2 µM | HOP-62 31.4 µM | UO-31 28.4 µM | NCI-H23 37.4 µM | RXF 393 32.6 µM | Hs-578T 39.2 µM

C(=N\c1ccc(-c2nc3ccccc3s2)cc1)/c1ccc[nH]1
inactive: 786-0 21.9 µM | MOLT-4 11.7 µM | MDA-N 18 µM | DU-145 17.3 µM | SN12C 19.5 µM | K562 20.4 µM | SK-MEL-2 17.3 µM | CAKI-1 22.8 µM | SF-295 13.3 µM | RPMI-8226 15.5 µM | EKVX 17.2 µM | HCC 2998 16.5 µM | NCI-H226 14.8 µM | IGROV-1 15.1 µM | HOP-62 12.5 µM | UO-31 17.4 µM | NCI-H23 16.8 µM | RXF 393 16 µM | Hs-578T 19.7 µM

CN(Cc1cnc2nc(N)nc(N)c2n1)c1ccc(C(=O)NC23CC4CC(CC(C4)C2)C3)cc1
active: K562 1.06 µM
inactive: 786-0 7.24 µM | MOLT-4 6.68 µM | DU-145 10.7 µM | SN12C 20.4 µM | MCF7 10.9 µM | SK-MEL-2 11.5 µM | CAKI-1 12 µM | SF-295 4.69 µM | RPMI-8226 22 µM | EKVX 13.2 µM | NCI-H226 13.1 µM | IGROV-1 5.9 µM | HOP-62 12.6 µM | UO-31 11.8 µM | NCI-H23 10.2 µM | RXF 393 17.1 µM | Hs-578T 12.9 µM

COC(=O)C1=C(C)NC(C)=C(C(=O)OC)C1c1nc2sccn2c1[N+](=O)[O-]
inactive: 786-0 > 100 µM | MOLT-4 > 100 µM | DU-145 > 100 µM | SN12C > 100 µM | K562 > 100 µM | MCF7 > 100 µM | SK-MEL-2 > 100 µM | CAKI-1 > 100 µM | SF-295 > 100 µM | RPMI-8226 > 100 µM | EKVX 96.4 µM | HCC 2998 > 100 µM | NCI-H226 > 100 µM | HOP-62 > 100 µM | UO-31 > 100 µM | NCI-H23 > 100 µM | RXF 393 > 100 µM | Hs-578T > 100 µM

C/C(=C\CSCC(N)C(=O)O)CC/C=C(\C)CNc1ccccc1 (configuration not stated)
inactive: 786-0 > 100 µM | MOLT-4 > 100 µM | DU-145 > 100 µM | SN12C > 100 µM | K562 > 100 µM | MCF7 > 100 µM | SK-MEL-2 > 100 µM | CAKI-1 > 100 µM | SF-295 > 100 µM | EKVX > 100 µM | HCC 2998 > 100 µM | NCI-H226 > 100 µM | IGROV-1 > 100 µM | HOP-62 > 100 µM | UO-31 82 µM | NCI-H23 > 100 µM | RXF 393 > 100 µM | Hs-578T > 100 µM
active: RPMI-8226 0.421 µM

O=C(/C=C/c1c(O)ccc2ccccc12)c1ccc([N+](=O)[O-])cc1
inactive: 786-0 24.5 µM | MOLT-4 43.6 µM | SN12C 20 µM | K562 > 49.4 µM | SK-MEL-2 33.2 µM | CAKI-1 37.8 µM | SF-295 > 66.2 µM | RPMI-8226 25.9 µM | EKVX 41.9 µM | HCC 2998 97.9 µM | NCI-H226 > 100 µM | IGROV-1 > 60.8 µM | HOP-62 > 100 µM | UO-31 > 43 µM | NCI-H23 23.1 µM | RXF 393 23.1 µM

COc1ccc(/C=C/[N+](=O)[O-])cc1
inactive: 786-0 3.75 µM | MOLT-4 2.8 µM | DU-145 6.52 µM | SN12C 16.3 µM | K562 3.53 µM | MCF7 2.02 µM | SK-MEL-2 20 µM | SF-295 2.62 µM | EKVX 13.2 µM | NCI-H226 3.6 µM | IGROV-1 3.57 µM | HOP-62 8.07 µM | UO-31 11.3 µM | NCI-H23 9.75 µM | Hs-578T 3.05 µM
active: HCC 2998 < 0.01 µM

Reference: ChEMBL document CHEMBL1201862, “PubChem BioAssay data set” (2004)
